Source: patent US7915238B2, “Immunomodulatory compounds and methods of use thereof” (Eisai R & D Management Co., Ltd., priority 1999, dated 2011)
“And” between values parts separate entries of the source, which are not always exact repeats. Identical values can stand only once.

Experiments:
[1] = system: B16F10 murine melanoma cells; test: Survival of melanoma-bearing mice, i.p. compound with s.c. B16 GM-CSF cell vaccine; assay type: in vivo, B6 mice (C57BL6 mice); conditions: i.p. Compound 804057 combined with s.c. B16 GM-CSF cells, three days after tumor inoculation; FIG. 7
From the text: To determine the effect of Compound 804057 when administered intraperitoneally with a cancer vaccine, e.g., granulocyte-macrophage colony stimulating factor (GM-CSF) secreting tumor cells, a mouse model using melanoma cells was used. Compound 804057 is a TLR-4 (Toll-like receptor-4) agonist. B6 mice (C57BL6 mice) were engrafted subcutaneously with […] murine melanoma cells. Three days after tumor cell inoculation, the mice were either (1) vaccinated subcutaneously (s.c.) with 1×10^6 B16F10 tumor cells that were genetically modified to stably express and secrete murine GM-CSF (B16-GM-CSF cells); (2) vaccinated intraperitoneally (i.p.) with Compound 804057; or (3) were treated with a combination of s.c. GM-CSF cell vaccination and i.p. Compound 804057 (the GM-CSF cell vaccination and Compound 804057 vaccination were administered at separate sites in the mice). In these experiments, the GM-CSF cells were inactivated by gamma-irradiation prior to inoculation. Survival of the animals was monitored.

MUC1 IL-10−/− mice = test: MUC-1 vaccine with adjuvant in mice that develop IBD and colon adenocarcinoma; assay type: in vivo, mouse
Description: To test the effects of a MUC-1 vaccine with Compound 804057 adjuvant for treating inflammatory bowel disease (IBD) and subsequent development of colon adenocarcinoma, an engineered mouse strain that lacks the IL-10 gene and expresses transgenic human MUC1 was used. Such mice spontaneously develop intestinal inflammation resembling IBD followed by colon adenocarcinoma. […] 4, 2006.
In these experiments, mice were immunized intranasally with […] of Tn MUC100mer ([…])×5, SEQ ID NO:1) and […] of Compound 804057. Animals were vaccinated at about 4.5 weeks and boosted at about 6.5 weeks and 9 weeks.

Whole blood = test: IL-12p70 production in whole blood, 24 hrs (Table 2); assay type: cell-based, human; conditions: 50 nM
[2] = system: B16F10 murine melanoma cells; test: Survival of melanoma-bearing mice, intratumoral GM-CSF cells with compound; assay type: in vivo, B6 mice; conditions: about 3-10 μg, combined with GM-CSF cells, vs untreated or GM-CSF cells alone, FIG. 8
Description: The effect of Compound 804057 on treatment of B6 mice that were engrafted subcutaneously with 1×10^6 syngeneic B16F10 murine melanoma cells was examined. When tumors became palpable, the mice were injected intratumorally with GM-CSF cells alone, or in combination with Compound 804057 (about 3-10 μg). Survival of the animals was monitored.

Human Whole Blood = test: Cytokine release in human whole blood (ELISA); assay type: cell-based
In short: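 Heparinized whole blood from healthy donors (80% final) incubated 3 h at 37 °C, 5% CO2 with compound at various concentrations. Plasma TNF-alpha, IL-10 and IL-12 measured by ELISA in triplicate; 10 ng/ml LPS included as reference stimulus.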

Nonadherent PBMC = test: Cytokine production by stimulated nonadherent human PBMC; assay type: cell-based; conditions: 50 nM, 24 hrs
EGFRvIII peptide = test: EGFRvIII peptide-specific antibody titers after immunization (ELISA); assay type: in vivo, C57/BL6J mice; conditions: s.c. with 25 μg peptide-KLH, 804057 3 μg, GM-CSF 5 μg
From the text: To determine whether an adjuvant can enhance the effect of an oncology antigen (i.e., an antigen that can be used to vaccinate a subject individual against a cancer), C57/BL6J mice were immunized subcutaneously with a tumor-associated peptide, LEEKKGNYVVTDHC (SEQ ID NO:2) (derived from a mutant form of EGFR, […]) conjugated to the protein carrier keyhole limpet hemocyanin (KLH), with or without Compound 804057 or murine GM-CSF, a cytokine used in cancer vaccine trials to boost immune response. Compound 804057 was dosed at 3 μg, GM-CSF at 5 μg and the peptide-KLH conjugate at 25 μg per dose. Mice were immunized three times at intervals of three weeks. Serum was prepared from mice two weeks after each immunization and tested for […] peptide-specific antibodies using ELISA on plates coated with EGFRvIII peptide conjugated to bovine serum albumin. The results in Table 3 are presented as titers from individual animals. The titer is defined as the last serum dilution at which a signal at 0.25 OD units above background was observed.

Adherent PBMC = test: Cytokine production by stimulated adherent human PBMC; assay type: cell-based; conditions: 50 nM
[3] = titer = last serum dilution 0.25 OD above background

Compound: CCCCCCCCCCCC(=O)CC(=O)N[C@H](COCC[C@@H](CCCCCCC)OC(=O)CCCCCCCCCCC)COP(=O)([O-])OCCNC(=O)NCCOP(=O)([O-])OC[C@@H](COCC[C@@H](CCCCCCC)OC(=O)CCCCCCCCCCC)NC(=O)CC(=O)CCCCCCCCCCC.[Na+].[Na+] [ER 804057]
- therapeutic efficacy (survival) of tumor-bearing mice [1]: enhanced the therapeutic efficacy of the GM-CSF cells
- appearance of histologically detected tumors (MUC1 IL-10−/− mice; added to the MUC-1 vaccine): suppresses the appearance of histologically detected tumors
- progression to rectal prolapse associated with IBD (MUC1 IL-10−/− mice; added to the MUC-1 vaccine): can slow the progression to rectal prolapse associated with IBD
- Age (weeks) (MUC1 IL-10−/− mice; age of treated mice, Table 5): 12.5-18 weeks
- development of colon cancer (MUC1 IL-10−/− mice; intranasal with MUC-1 vaccine (Tn MUC100mer)): did not develop colon cancer
- onset of IBD (MUC1 IL-10−/− mice; intranasal with MUC-1 vaccine (Tn MUC100mer), FIG. 9): delayed onset of IBD or did not develop IBD
- survival (MUC1 IL-10−/− mice; intranasal with MUC-1 vaccine (Tn MUC100mer), FIG. 10): improved survival
- Colon tumors (MUC1 IL-10−/− mice; mice with tumors / mice treated): 3/3
- Cytokine Production IL-12p70 (Whole blood): 1332 pg/mL
- survival of tumor-bearing mice [2]: increased survival
- IL-10 release from blood-borne cells (Human Whole Blood; FIG. 2): stimulate blood-borne cells to release IL-10
- IL-12 release from blood-borne cells (Human Whole Blood; FIG. 2): stimulate blood-borne cells to release IL-12
- EC50 (Human Whole Blood; whole blood, vs. % of LPS at 10 ng/ml, read-out: WB ED50 vs LPS@ 10 ng/ml): 8 nM
- Cytokine Production GM-CSF (Nonadherent PBMC): 353 pg/mL
- Cytokine Production IL-1α (Nonadherent PBMC): 108 pg/mL
- Cytokine Production IL-1β (Nonadherent PBMC): 431 pg/mL
- Cytokine Production Interferon-γ (Nonadherent PBMC): 331 pg/mL
- Geometric mean titer, IgG1 (EGFRvIII peptide): 20182
- Antibody titers to EGFRvIII peptide, IgG1, individual animals (EGFRvIII peptide; [3]): 24000 (6×) and 48000 and 3000
- Antibody titers to EGFRvIII peptide, IgG2a, individual animals (EGFRvIII peptide; [3]): 6000 (2×) and 12000 (3×) and 24000 and 48000 and 1500
- Cytokine Production IL-1α (Adherent PBMC; 4 hrs): 8 pg/mL
- Cytokine Production IL-1β (Adherent PBMC; 4 hrs): 55 pg/mL
- Cytokine Production IL-6 (Adherent PBMC; 4 hrs): 551 pg/mL
- Cytokine Production Interferon-α (Adherent PBMC; 4 hrs): 345 pg/mL
- Cytokine Production TNF-α (Adherent PBMC; 4 hrs): 3627 pg/mL
- Cytokine Production IL-10 (Adherent PBMC; 24 hrs): 175 pg/mL
- Cytokine Production Interferon-α (Adherent PBMC; 48 hrs): 175 pg/mL
